Measurements published in patent US9945862B2, “Biomarkers for predicting and assessing responsiveness of thyroid and kidney cancer subjects to lenvatinib compounds” (Eisai R&D Management Co., Ltd., priority 2011, dated 2018).

Tested on: cytokine, chemokine and angiogenic factors (blood biomarkers)
Experiment: Serum blood biomarkers (cytokine, chemokine and angiogenic factors) by ELISA and multiplex kits, pre- and post-treatment with E7080
Assay type: in vivo, human
Procedure: Patients received E7080 at a dose of 24 mg oral once daily in 28 day cycles. […] 7.5 mL of blood was drawn into serum […] tube (SST) and let to clot at room temperature for at least 30 min. Within 60 minutes of sample collection, the tubes were centrifuged for 10 minutes at 20-25° C. at 1400×g. The supernatant was drawn without disturbing the pellet and the serum was mixed and divided into two sample tubes and stored frozen (−70° C.) at an upright position until further treatment for analysis. Serum samples from 58 patients were used for blood biomarker analysis. […] The association of progression free survival with or without a covariate was analyzed. The covariates used are the following PK parameters: cycle 1 day 1 Cmax (E7080 concentration 2 hr after dosing on cycle 1 day 1: MAX1); cycle 1 day 1 Ctrough (E7080 concentration before dosing on cycle1 day 8: MIN1); cycle 2 day 1 Cmax (E7080 concentration 2 hrs after dosing on cycle 2 day 1: MAX2); cycle 2 day 1 Ctrough (E7080 concentration before dosing on cycle 2 day 1: MIN2). Serum samples were tested in batch format where all timepoints from the same subject were assayed on the same day. On the day of assay, samples were removed from −80° C. and allowed to thaw and reach room temperature. The serum samples were tested using the following commercial assay kits as per the manufacturer's instructions: Human Soluble Tie-2 ELISA (R&D Systems Cat. No. DTE200), Human Angiopoietin-1 ELISA (R&D Systems Cat. No. DANG10), Human FGF23 ELISA, Human SDF-1a ELISA. Human Angiopoietin-2 ELISA (R&D Systems Cat. No. DANG20), Human Soluble Receptor Multiplex (Millipore Cat. No. HSCR-32K; sVEGF R1, sVEGF R2 and sVEGF R3 only), Human Cytokine/Chemokine Panel I Multiplex (Millipore Cat. No. MPXHCYTO-60K; IL-1α, IL-1β, IL-1ra, IL-2, IL-4, IL-5, IL-6, IL-7, IL-8, IL-10, IL-12p40, IL-12p70, IL-13, IL-15, IL-17, sCD40L, EGF, Eotaxin, FGF-2, G-CSF, GM-CSF, IFN-γ, IP-10, MCP-1, MIP-1α, MIP-1β, PDGF-AA, RANTES, TGF-α, TNF-α and VEGF only) and Human Growth Factor Multiplex (Origene TruPLEX Cat. No. AM100096; PDGF-AB, PDGF-BB, FGF4, VEGFD, FGF2, EGF, HGF, FLT3LG, ANGPT2, PGF and VEGFA).
The ELISA plates were measured using a Molecular Devices UVmax kinetic microplate reader with SoftMax Pro 5.2 software. The multiplex assays were performed using the Bio-Rad Bio-Plex system with Bio-Plex Manager 4.1 software. Final protein concentrations (pg/mL) were calculated from the standard curve for each assay. Depending on the assay, serum samples may have been diluted in assay buffer prior to testing. In these cases, protein concentrations were multiplied by the dilution factor.
From 58 patient samples, between 27 and 49 pre- and post-treatment blood samples were used for analyses.

Q: `COc1cc2nccc(Oc3ccc(NC(=O)NC4CC4)c(Cl)c3)c2cc1C(N)=O` [E7080, 4-(3-chloro-4-(cyclopropylaminocarbonyl)aminophenoxy)-7-methoxy-6-quinolinecarboxamide] was tested. Which “ANG2 (90) concentration (Median), PR group” value (CYCLE 1 DAY 1 (pre-treatment)) did it give?
A: 829.5 pg/mL

Q: What about the “ANG2 (90) concentration (Median), others (SD or PD)” value (CYCLE 1 DAY 1 (pre-treatment)) of the same compound?
A: 1032.9 pg/mL

Q: What about the “Ang-2 concentration (Median), PR group” value (CYCLE 1 DAY 1 (pre-treatment)) of the same compound?
A: 2530.5 pg/mL

Q: And the “Ang-2 concentration (Median), others (SD or PD)” value (CYCLE 1 DAY 1 (pre-treatment))?
A: 3399 pg/mL

Q: And the “IFN-g concentration (Median), PR group” value (CYCLE 1 DAY 1 (pre-treatment))?
A: 7.9 pg/mL

Q: What about the “IFN-g concentration (Median), others (SD or PD)” value (CYCLE 1 DAY 1 (pre-treatment)) of the same compound?
A: 21.2 pg/mL

Q: And the “ANG2 (90) concentration (Median), PR group” value (CYCLE 1 DAY 8)?
A: 591.7 pg/mL

Q: And the “ANG2 (90) concentration (Median), others (SD or PD)” value (CYCLE 1 DAY 8)?
A: 799.3 pg/mL

Q: And the “ANG2 (90) serum level post treatment (median)” value (CYCLE 1 DAY 8)?
A: 688.6 pg/mL

Q: And the “Ang-2 serum level post treatment (median)” value (CYCLE 1 DAY 8)?
A: 1812 pg/mL

Q: And the “Eotaxin serum level post treatment (median)” value (CYCLE 1 DAY 8)?
A: 154.7 pg/mL

Q: And the “FLT3 LG (89) serum level post treatment (median)” value (CYCLE 1 DAY 8)?
A: 71.1 pg/mL

Q: And the “G-CSF serum level post treatment (median)” value (CYCLE 1 DAY 8)?
A: 67.1 pg/mL

Q: And the “HGF (86) serum level post treatment (median)” value (CYCLE 1 DAY 8)?
A: 1339.3 pg/mL

Q: And the “IL-6 serum level post treatment (median)” value (CYCLE 1 DAY 8)?
A: 17.3 pg/mL

Q: What about the “IL-7 serum level post treatment (median)” value (CYCLE 1 DAY 8) of the same compound?
A: 6.4 pg/mL

Q: What about the “IL-8 serum level post treatment (median)” value (CYCLE 1 DAY 8) of the same compound?
A: 31.7 pg/mL

Q: What about the “IL-17 serum level post treatment (median)” value (CYCLE 1 DAY 8) of the same compound?
A: 14.4 pg/mL

Q: What about the “IP-10 serum level post treatment (median)” value (CYCLE 1 DAY 8) of the same compound?
A: 474.3 pg/mL

Q: What about the “PGF (91) serum level post treatment (median)” value (CYCLE 1 DAY 8) of the same compound?
A: 35.9 pg/mL

Q: What about the “SDF-1a concentration (Median), PR group” value (CYCLE 1 DAY 8) of the same compound?
A: 3294 pg/mL

Q: And the “SDF-1a concentration (Median), others (SD or PD)” value (CYCLE 1 DAY 8)?
A: 2915 pg/mL

Q: And the “SDF-1a serum level post treatment (median)” value (CYCLE 1 DAY 8)?
A: 3129.0 pg/mL

Q: What about the “TGFa serum level post treatment (median)” value (CYCLE 1 DAY 8) of the same compound?
A: 14.6 pg/mL

Q: What about the “Tie-2 serum level post treatment (median)” value (CYCLE 1 DAY 8) of the same compound?
A: 31685 pg/mL

Q: What about the “VEGF serum level post treatment (median)” value (CYCLE 1 DAY 8) of the same compound?
A: 741.4 pg/mL

Q: And the “VEGFA (100) serum level post treatment (median)” value (CYCLE 1 DAY 8)?
A: 202.1 pg/mL

Q: What about the “sVEGFR1 serum level post treatment (median)” value (CYCLE 1 DAY 8) of the same compound?
A: 300 pg/mL

Q: What about the “sVEGFR2 serum level post treatment (median)” value (CYCLE 1 DAY 8) of the same compound?
A: 18823.1 pg/mL

Q: What about the “FGF-2 ratio (Median), PR group” value (CYCLE 1 DAY 8/CYCLE 1 DAY 1) of the same compound?
A: 1.189

Q: What about the “FGF-2 ratio (Median), others (SD or PD)” value (CYCLE 1 DAY 8/CYCLE 1 DAY 1) of the same compound?
A: 0.952

Q: And the “GM-CSF ratio (Median), PR group” value (CYCLE 1 DAY 8/CYCLE 1 DAY 1)?
A: 1.037

Q: What about the “GM-CSF ratio (Median), others (SD or PD)” value (CYCLE 1 DAY 8/CYCLE 1 DAY 1) of the same compound?
A: 0.945

Q: And the “ANG2 (90) fold change (median)” value (CYCLE 1 DAY 8 vs CYCLE 1 DAY 1)?
A: 0.671

Q: What about the “Ang-2 fold change (median)” value (CYCLE 1 DAY 8 vs CYCLE 1 DAY 1) of the same compound?
A: 0.665

Q: And the “Eotaxin fold change (median)” value (CYCLE 1 DAY 8 vs CYCLE 1 DAY 1)?
A: 1.171

Q: What about the “FLT3 LG (89) fold change (median)” value (CYCLE 1 DAY 8 vs CYCLE 1 DAY 1) of the same compound?
A: 0.885

Q: What about the “G-CSF fold change (median)” value (CYCLE 1 DAY 8 vs CYCLE 1 DAY 1) of the same compound?
A: 1.25

Q: What about the “HGF (86) fold change (median)” value (CYCLE 1 DAY 8 vs CYCLE 1 DAY 1) of the same compound?
A: 1.096

Q: What about the “IL-6 fold change (median)” value (CYCLE 1 DAY 8 vs CYCLE 1 DAY 1) of the same compound?
A: 1.824

Q: And the “IL-7 fold change (median)” value (CYCLE 1 DAY 8 vs CYCLE 1 DAY 1)?
A: 1

Q: And the “IL-8 fold change (median)” value (CYCLE 1 DAY 8 vs CYCLE 1 DAY 1)?
A: 1.164

Q: And the “IL-17 fold change (median)” value (CYCLE 1 DAY 8 vs CYCLE 1 DAY 1)?
A: 1.025

Q: And the “IP-10 fold change (median)” value (CYCLE 1 DAY 8 vs CYCLE 1 DAY 1)?
A: 1.249

Q: What about the “PGF (91) fold change (median)” value (CYCLE 1 DAY 8 vs CYCLE 1 DAY 1) of the same compound?
A: 2.306

Q: What about the “SDF-1a fold change (median)” value (CYCLE 1 DAY 8 vs CYCLE 1 DAY 1) of the same compound?
A: 1.21

Q: And the “TGFa fold change (median)” value (CYCLE 1 DAY 8 vs CYCLE 1 DAY 1)?
A: 1.157

Q: And the “Tie-2 fold change (median)” value (CYCLE 1 DAY 8 vs CYCLE 1 DAY 1)?
A: 0.917

Q: And the “VEGF fold change (median)” value (CYCLE 1 DAY 8 vs CYCLE 1 DAY 1)?
A: 1.29

Q: What about the “VEGFA (100) fold change (median)” value (CYCLE 1 DAY 8 vs CYCLE 1 DAY 1) of the same compound?
A: 1.28

Q: What about the “sVEGFR1 fold change (median)” value (CYCLE 1 DAY 8 vs CYCLE 1 DAY 1) of the same compound?
A: 0.92
